Experiments:
Type in all cases: binding
[1] = target: T1, PlAntI (Photorhabdus laumondii, UniProt Q7MZT8); test: X-ray crystal structure; mass spectrometry; conditions: covalent; Ser245 converted to dehydroalanine, inhibitor itself eliminated; 1.8 A
T1 construct: gene plu4186; crystallised enzyme; catalytic Ser245, His355, Asp326; construct and host only in supplement
T1 sequence (Q7MZT8 1-384): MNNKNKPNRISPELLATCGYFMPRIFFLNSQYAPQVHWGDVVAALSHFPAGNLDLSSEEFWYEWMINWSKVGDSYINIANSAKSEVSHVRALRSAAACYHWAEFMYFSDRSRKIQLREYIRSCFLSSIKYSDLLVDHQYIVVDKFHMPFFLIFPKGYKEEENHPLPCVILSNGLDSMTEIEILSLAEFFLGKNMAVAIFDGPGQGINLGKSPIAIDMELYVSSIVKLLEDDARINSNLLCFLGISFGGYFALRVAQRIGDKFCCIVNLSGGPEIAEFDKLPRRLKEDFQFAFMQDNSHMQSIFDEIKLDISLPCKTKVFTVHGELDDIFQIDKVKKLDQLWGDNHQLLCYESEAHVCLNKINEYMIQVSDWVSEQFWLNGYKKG

[2] = target: T2, Wdyg1p (Exophiala dermatitidis, UniProt Q6BCB5); test: X-ray crystal structure
T2 construct: gene yg1; homodimer; N-domain residues 1-139, C-domain residues 144-393; active-site Ser256, His378; construct and host only in supplement
T2 sequence (Q6BCB5 entry or part of it): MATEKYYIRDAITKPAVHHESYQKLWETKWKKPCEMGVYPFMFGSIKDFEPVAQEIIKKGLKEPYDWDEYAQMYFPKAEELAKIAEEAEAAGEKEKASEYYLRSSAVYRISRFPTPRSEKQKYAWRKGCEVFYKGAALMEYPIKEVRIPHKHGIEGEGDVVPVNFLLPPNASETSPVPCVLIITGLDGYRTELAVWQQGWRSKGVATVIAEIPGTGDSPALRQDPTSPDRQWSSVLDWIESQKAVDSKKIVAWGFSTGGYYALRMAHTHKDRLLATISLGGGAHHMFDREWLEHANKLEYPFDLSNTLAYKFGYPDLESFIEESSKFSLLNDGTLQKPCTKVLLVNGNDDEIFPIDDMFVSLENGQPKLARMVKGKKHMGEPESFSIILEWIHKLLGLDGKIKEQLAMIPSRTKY

[3] = target: T3, Afyg1p (Aspergillus fumigatus, UniProt Q4WZB3); test: X-ray crystal structure; conditions: reaction product in specificity pocket; 1.7 A
T3 construct: gene ayg1; homodimer; active-site Ser257, His380, Asp352; construct and host only in supplement
T3 sequence (Q4WZB3 2-406): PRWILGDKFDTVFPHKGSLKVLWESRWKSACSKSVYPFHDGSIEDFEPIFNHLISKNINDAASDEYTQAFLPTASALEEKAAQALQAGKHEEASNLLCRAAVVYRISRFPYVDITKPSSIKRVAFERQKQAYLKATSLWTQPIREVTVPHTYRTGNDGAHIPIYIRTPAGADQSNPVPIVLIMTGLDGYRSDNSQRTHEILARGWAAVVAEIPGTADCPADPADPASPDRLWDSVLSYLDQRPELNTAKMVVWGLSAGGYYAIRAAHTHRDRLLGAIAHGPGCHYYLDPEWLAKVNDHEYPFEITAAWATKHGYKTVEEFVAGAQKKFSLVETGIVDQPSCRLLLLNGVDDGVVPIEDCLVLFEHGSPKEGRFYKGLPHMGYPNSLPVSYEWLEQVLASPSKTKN

SMILES	X-ray crystal structure; mass spectrometry [1]	X-ray crystal structure ([2]; covalent, Ser256 converted to dehydroalanine, inhibitor itself eliminated, 1.85 A)	X-ray crystal structure ([2]; reaction product in specificity pocket, 1.95 A)	X-ray crystal structure [3]
O=S(=O)(F)c1ccccc1 [PSF, phenyl‐SF]	treatment of PlAntI with PMSF (*) or PSF (^#) appears to also introduce a DHA	treatment of Wdyg1p with PMSF (*) or PSF (^#) leads to the β‐elimination mediated conversion		
Oc1cc(O)c2c(O)cc(O)cc2c1 [THN, 1,3,6,8‐tetrahydroxynaphthalene]			Wdyg1p crystal structure in complex with its product, THN (Wdyg1p:THN, PDB ID: 8QD9	the structure of Afyg1p in complex with its reaction product THN was analyzed

From paper PMC11165489, “Polyketide Trimming Shapes Dihydroxynaphthalene‐Melanin and Anthraquinone Pigments” (Advanced Science, 2024)
